Laboratory results from patent US20230146507A1, “N-PHENYL-3-MERCAPTOPROPANAMIDE DERIVATIVES AS METALLO-BETA-LACTAMASE INHIBITORS FOR THE TREATMENT OF BACTERIAL INFECTIONS” (Helmholtz-Zentrum Für Infektionsforschung GmbH, priority 2020, published 2023).

What was measured:
E. coli IMP-1 (T2360) = assay: Checkerboard assay with imipenem, E. coli IMP-1 (T2360); type: cell-based
Procedure: (§1) Fractional inhibitory concentration index (FICI). The checkerboard assay was performed to test for synergy in vitro. […] FICIs≤0.5 were defined as synergistic; FICIs from >0.5 to […] were defined as additive; FICIs from 1 to ≤4 were defined as indifferent and FICIs>4 were defined as antagonistic (Doern, C. D. When Does 2 plus 2 Equal 5? A Review of Antimicrobial Synergy Testing. J. Clin. Microbial. 2014, 52 (12), 4124-4128. https://doi.org/10.1128/JCM.01121-14).

VIM-1 = target: T1, VIM-1 (Pseudomonas aeruginosa, UniProt A0A0F7KYQ8); assay: In vitro inhibition assay (kinetic fluorescence-based activity assay), VIM-1; type: biochemical; settings: Means and SD of at least two independent experiments
T1 construct: made in house
Procedure: (§2) Protein expression and purification. The expression of IMP-7, VIM-1, and NDM-1 was performed according to the protocol previously published by Klingler et al. (Klingler, F. M.; Wichelhaus, T. A.; Frank, D.; Cuesta-Bernal, J.; El-Delik, J.; Müller, H. F.; Sjuts, H.; Gottig, S.; Koenigs, A.; Pos, K. M.; et al. Approved Drugs Containing Thiols as Inhibitors of Metallo-β-Lactamases: Strategy to Combat Multidrug-Resistant Bacteria. J. Med. Chem. 2015, 58 (8), 3626-3630. https://doi.org/10.1021/jm501844d) with slight modifications.
(§3) In vitro inhibition assay. Activity assays for NDM-1, VIM-1, VIM-2 and IMP-7 were carried out, as described by Klingler et al. Final protein concentrations were 0.5 nM (NDM-1), 4.0 nM (VIM-1), and 0.1 nM (IMP-7) in a 50 mM HEPES buffer (pH 7.5, 0.01% Triton X-100) Substrate (Fluorocillin™ (Invitrogen, Darmstadt, Germany) was dissolved in assay buffer to a final concentration of 888 nM. Test compounds were dissolved and pre-diluted in DMSO (final concentration: 1%). In a black polystyrol 96-well plate (Corning) an amount of […] of the respective inhibitor solution at different concentrations was incubated with […] of respective protein containing buffer for 30 minutes at room temperature. […] of substrate solution was added. The readout of the emitted fluorescence was started immediately (45 s for 30 cycles) using a Tecan Infinite F200Pro (Tecan Group Ltd; excitation at 495 nm and emission at 525 nm). Blank controls were performed without enzyme. Positive controls were performed with enzyme but without inhibitor. The inhibitory activity of each test compound was measured in three independent experiments. For calculation of IC50 values, data obtained from measurements with eight different inhibitor concentrations were used. For the evaluation of the sigmoidal dose response equation (variable slope with four parameters) GraphPad Prism 5 (GraphPad Software, La Jolla, Calif., USA) was used.

E. coli VIM-1 (T2544) = assay: Checkerboard assay with imipenem, E. coli VIM-1 (T2544); type: cell-based
Procedure: as §1

[1] = system: different isolates from E. coli and P. aeruginosa; assay: MIC assay, intrinsic antibacterial activity; type: cell-based; settings: compound alone
E. coli NDM-1 (T2359) = assay: Checkerboard assay with imipenem, E. coli NDM-1 (T2359); type: cell-based; settings: Table 6
Procedure: as §1

IMP-7 = IMP-7 (Pseudomonas aeruginosa, UniProt Q93AU3); assay: In vitro inhibition assay (kinetic fluorescence-based activity assay), IMP-7; type: biochemical; settings: Means and SD of at least two independent experiments
Procedure: as §2, §3

NDM-1 = target: T2, NDM-1 (Klebsiella pneumoniae, UniProt C7C422); assay: In vitro inhibition assay (kinetic fluorescence-based activity assay), NDM-1; type: biochemical; settings: Means and SD of at least two independent experiments
T2 construct: made in house
Procedure: as §2, §3

MMP-2 = MMP-2 (Homo sapiens, UniProt P08253); assay: Selectivity assay on MMP-2; type: biochemical; settings: read-out: % Inh. @ 100 μM MMP-2
Procedure: (§4) Cytotoxicity assays and Selectivity assays. Cytotoxicity assays on HepG2, HEK293 and A549 cells and selectivity assays on various MMPs were performed as described previously (Haupenthal, J.; Baehr, C.; Zeuzem, S.; Piiper, A. RNAse A-like Enzymes in Serum Inhibit the Anti-Neoplastic Activity of SiRNA Targeting Polo-like Kinase 1. Int. J. Cancer 2007, 121 (1), 206-210. https://doi.org/10.1002/ijc.22665).

[2] = Cytotoxicity assay on HepG2 cells; type: cell-based; settings: human
Procedure: as §4

[3] = Cytotoxicity assay on HEK293 cells; type: cell-based; settings: human
Procedure: as §4

[4] = Cytotoxicity assay on A549 cells; type: cell-based; settings: human
Procedure: as §4

MMP-7 = MMP-7 (Homo sapiens, UniProt P09237); assay: Selectivity assay on MMP-7; type: biochemical; settings: read-out: % Inh. @ 100 μM MMP-7
Procedure: as §4

MMP-1 = MMP-1 (Homo sapiens, UniProt P03956); assay: Selectivity assay on MMP-1; type: biochemical; settings: read-out: % Inh. @ 100 μM MMP-1
Procedure: as §4

MMP-14 = MMP-14 (Homo sapiens, UniProt P50281); assay: Selectivity assay on MMP-14; type: biochemical; settings: read-out: % Inh. @ 100 μM MMP-14
Procedure: as §4

MMP-8 = MMP-8 (Homo sapiens, UniProt P22894); assay: Selectivity assay on MMP-8; type: biochemical; settings: read-out: % Inh. @ 100 μM MMP-8
Procedure: as §4

[5] = system: imipenem-resistant P. aeruginosa producing VIM-2; assay: Imipenem MIC with compound at single concentration; type: cell-based; settings: compound at single concentration 1024 μg/mL
MMP-3 = MMP-3 (Homo sapiens, UniProt P08254); assay: Selectivity assay on MMP-3; type: biochemical; settings: read-out: % Inh. @ 100 μM MMP-3
Procedure: as §4

Chain of IMP-7 (Q93AU3 entry or part of it): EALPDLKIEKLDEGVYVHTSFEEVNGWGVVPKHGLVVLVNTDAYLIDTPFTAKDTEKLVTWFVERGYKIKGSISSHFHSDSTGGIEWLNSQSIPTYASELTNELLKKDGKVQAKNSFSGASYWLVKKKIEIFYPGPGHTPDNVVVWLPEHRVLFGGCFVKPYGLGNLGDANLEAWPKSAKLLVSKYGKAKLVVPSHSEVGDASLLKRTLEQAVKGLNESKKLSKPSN
T2 sequence (C7C422 29-270, looked up, species assumed): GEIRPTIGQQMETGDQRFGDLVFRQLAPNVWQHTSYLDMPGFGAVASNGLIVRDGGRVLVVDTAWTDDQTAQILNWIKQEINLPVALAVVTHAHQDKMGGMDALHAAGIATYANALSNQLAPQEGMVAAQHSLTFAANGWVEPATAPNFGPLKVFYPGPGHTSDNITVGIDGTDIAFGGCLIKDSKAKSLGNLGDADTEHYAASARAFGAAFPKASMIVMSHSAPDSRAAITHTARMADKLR
Chain of MMP-2 (P08253 110-660): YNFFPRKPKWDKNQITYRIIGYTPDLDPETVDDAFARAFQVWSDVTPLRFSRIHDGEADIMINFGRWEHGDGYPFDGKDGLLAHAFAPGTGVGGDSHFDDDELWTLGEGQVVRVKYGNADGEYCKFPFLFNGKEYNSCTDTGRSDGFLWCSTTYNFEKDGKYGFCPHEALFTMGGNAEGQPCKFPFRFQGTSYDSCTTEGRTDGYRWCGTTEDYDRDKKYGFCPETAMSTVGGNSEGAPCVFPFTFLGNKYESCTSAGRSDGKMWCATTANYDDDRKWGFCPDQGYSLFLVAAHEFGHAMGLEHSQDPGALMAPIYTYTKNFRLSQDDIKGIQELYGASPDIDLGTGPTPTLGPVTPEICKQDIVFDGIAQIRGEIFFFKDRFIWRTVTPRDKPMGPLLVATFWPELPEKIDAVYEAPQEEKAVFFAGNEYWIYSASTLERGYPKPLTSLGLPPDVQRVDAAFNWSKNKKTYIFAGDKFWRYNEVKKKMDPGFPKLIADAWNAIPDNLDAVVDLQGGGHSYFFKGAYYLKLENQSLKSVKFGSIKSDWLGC
Chain of MMP-7 (P09237 95-267): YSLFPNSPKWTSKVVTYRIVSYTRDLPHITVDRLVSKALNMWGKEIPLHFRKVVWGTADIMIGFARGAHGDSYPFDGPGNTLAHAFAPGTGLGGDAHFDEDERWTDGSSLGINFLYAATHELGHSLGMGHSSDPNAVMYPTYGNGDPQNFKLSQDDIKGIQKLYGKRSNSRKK
Chain of MMP-3 (P08254 100-477): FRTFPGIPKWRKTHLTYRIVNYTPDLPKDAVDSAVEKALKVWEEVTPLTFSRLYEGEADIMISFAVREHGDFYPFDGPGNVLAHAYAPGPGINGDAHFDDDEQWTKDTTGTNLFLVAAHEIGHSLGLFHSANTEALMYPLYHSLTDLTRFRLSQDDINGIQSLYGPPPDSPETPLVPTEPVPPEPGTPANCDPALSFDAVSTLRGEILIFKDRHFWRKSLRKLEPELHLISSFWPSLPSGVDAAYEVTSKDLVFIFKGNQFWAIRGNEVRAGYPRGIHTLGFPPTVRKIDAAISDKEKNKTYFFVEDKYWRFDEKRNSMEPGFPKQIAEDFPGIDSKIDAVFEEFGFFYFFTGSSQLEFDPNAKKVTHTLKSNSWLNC
Chain of MMP-8 (P22894 101-467): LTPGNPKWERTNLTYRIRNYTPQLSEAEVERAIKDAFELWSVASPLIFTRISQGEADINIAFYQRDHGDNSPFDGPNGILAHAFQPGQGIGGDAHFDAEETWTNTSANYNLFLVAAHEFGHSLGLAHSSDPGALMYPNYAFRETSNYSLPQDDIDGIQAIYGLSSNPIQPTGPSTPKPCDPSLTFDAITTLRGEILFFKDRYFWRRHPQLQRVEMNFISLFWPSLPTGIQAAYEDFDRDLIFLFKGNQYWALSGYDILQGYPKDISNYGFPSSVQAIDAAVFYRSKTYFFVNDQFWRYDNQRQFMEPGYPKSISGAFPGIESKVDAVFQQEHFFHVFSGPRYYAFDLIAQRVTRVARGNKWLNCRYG
Chain of MMP-1 (P03956 100-469): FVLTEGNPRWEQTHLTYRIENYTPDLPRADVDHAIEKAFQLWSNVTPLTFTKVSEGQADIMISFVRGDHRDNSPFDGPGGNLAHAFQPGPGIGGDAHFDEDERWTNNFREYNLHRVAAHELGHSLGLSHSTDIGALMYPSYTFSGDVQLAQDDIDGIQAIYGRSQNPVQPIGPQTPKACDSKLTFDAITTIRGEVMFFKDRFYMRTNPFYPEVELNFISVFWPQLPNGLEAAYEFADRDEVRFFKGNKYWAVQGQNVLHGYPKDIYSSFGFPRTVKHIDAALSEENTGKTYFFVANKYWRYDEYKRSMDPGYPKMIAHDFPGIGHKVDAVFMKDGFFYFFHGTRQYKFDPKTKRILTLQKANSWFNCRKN

Row | Structure (SMILES) | Imipenem MIC (E. coli IMP-1 (T2360); +2 mg/L compound) [µg/mL] | Imipenem MIC (E. coli IMP-1 (T2360); +4 mg/L compound) [µg/mL] | Imipenem MIC (E. coli IMP-1 (T2360); +8 mg/L compound) [µg/mL] | Imipenem MIC (E. coli IMP-1 (T2360); +16 mg/L compound) [µg/mL] | Imipenem MIC (E. coli IMP-1 (T2360); +32 mg/L compound) [µg/mL] | Imipenem MIC (E. coli IMP-1 (T2360); +64 mg/L compound) [µg/mL] | Imipenem MIC (E. coli IMP-1 (T2360); +128 mg/L compound) [µg/mL] | IC50 (VIM-1) [µM] | Imipenem MIC (E. coli VIM-1 (T2544); +2 mg/L compound) [µg/mL] | Imipenem MIC (E. coli VIM-1 (T2544); +4 mg/L compound) [µg/mL] | Imipenem MIC (E. coli VIM-1 (T2544); +8 mg/L compound) [µg/mL] | Imipenem MIC (E. coli VIM-1 (T2544); +16 mg/L compound) [µg/mL] | Imipenem MIC (E. coli VIM-1 (T2544); +32 mg/L compound) [µg/mL] | Imipenem MIC (E. coli VIM-1 (T2544); +64 mg/L compound) [µg/mL] | Imipenem MIC (E. coli VIM-1 (T2544); +128 mg/L compound) [µg/mL] | intrinsic antibacterial activity (MIC) [1] | Imipenem MIC (E. coli NDM-1 (T2359); +2 mg/L compound) [µg/mL] | Imipenem MIC (E. coli NDM-1 (T2359); +4 mg/L compound) [µg/mL] | IC50 (IMP-7) [µM] | IC50 (NDM-1) [µM] | also measured
1 | NC(=O)NS(=O)(=O)c1ccc(NC(=O)CCS)cc1 [HIPS5682] | 2 | 2 | 2 | 1 | 1 | 1 | 1 | 2 ± 0.1 | 32 | 32 | 32 | 32 | 16 | 8 | 2 | no intrinsic antibacterial activity | 128 | 128 | 12.6 ± 2.8 | 8.6 ± 0.2 | Imipenem MIC (E. coli NDM-1 (T2359); +8 mg/L compound): 128 µg/mL; Imipenem MIC (E. coli NDM-1 (T2359); +16 mg/L compound): 128 µg/mL; Imipenem MIC (E. coli NDM-1 (T2359); +32 mg/L compound): 128 µg/mL; Imipenem MIC (E. coli NDM-1 (T2359); +64 mg/L compound): 64 µg/mL; Imipenem MIC (E. coli NDM-1 (T2359); +128 mg/L compound): 16 µg/mL
2 | O=C(CCS)Nc1ccc(Cl)c(Cl)c1 [HIPS1447, N-(3,4-Dichlorophenyl)-3-mercaptopropanamide] |  |  |  |  |  |  |  | 0.1 |  |  |  |  |  |  |  | no intrinsic antibacterial activity |  |  | 5 ± 0.6 | 1.3 | inhibition at 100 µM (MMP-2): 15.8 ± 13.5%; IC50 [2]: > 100 µM; IC50 [3]: > 100 µM; IC50 [4]: > 100 µM; inhibition at 100 µM (MMP-7): < 10%; inhibition at 100 µM (MMP-1): < 10%; inhibition at 100 µM (MMP-14): 17.9 ± 7.8%; inhibition at 100 µM (MMP-8): 38.2 ± 24.8%; fold decrease of imipenem MIC value [5]: 64 fold; inhibition at 100 µM (MMP-3): < 10%
3 | O=C(CCS)Nc1cccc(S(=O)(=O)O)c1 [HIPS5672] | 2 | 2 | 2 | 1 | 1 | 1 | 0.5 | 1.6 ± 0.1 | 64 | 64 | 64 | 32 | 32 | 8 | 4 | no intrinsic antibacterial activity | 128 | 128 | 3.6 ± 0.3 | 1.3 | Imipenem MIC (E. coli NDM-1 (T2359); +8 mg/L compound): 128 µg/mL; Imipenem MIC (E. coli NDM-1 (T2359); +16 mg/L compound): 128 µg/mL; Imipenem MIC (E. coli NDM-1 (T2359); +32 mg/L compound): 128 µg/mL; Imipenem MIC (E. coli NDM-1 (T2359); +64 mg/L compound): 32 µg/mL; Imipenem MIC (E. coli NDM-1 (T2359); +128 mg/L compound): 2 µg/mL
